{"source": "patent US20220409582A1", "about": "“COMBINATION THERAPIES COMPRISING PANOBINOSTAT FOR THE TREATMENT OF CHOLANGIOCARCINOMA” (SEALD AS, priority 2019, published 2022)", "key": {"KMBC cell line": {"tested_on": "KMBC cell line", "assay": "Cell TitreGlo cell viability, KMBC cholangiocarcinoma cells", "type": "cell-based", "conditions": "single substance treatment, cell viability 48 h post drug addition", "description": "(§1) Various cholangiocarcinoma (CCA) cell lines were used for this drug screening.\n(§2) For panobinostat as single substance treatment seven cholangiocarcinoma cell lines were used. Panobinostat was then tested in combination with 23 other drugs on four cholangiocarcinoma cell lines. A single concentration of the combination drug was added based on a previously determined IC20 value for the combination drug tested alone on each of the four cell lines. The cell line TFK-1 was insensitive to some tested drugs."}, "KMCH-1 cell line": {"tested_on": "KMCH-1 cell line", "assay": "Cell TitreGlo cell viability, KMCH-1 combined cholangio- and hepatocarcinoma cells", "type": "cell-based", "conditions": "single substance treatment, cell viability 48 h post drug addition", "description": "as §1, §2"}, "CC-LP-1 cell line": {"tested_on": "CC-LP-1 cell line", "assay": "Cell TitreGlo cell viability, CC-LP-1 cholangiocarcinoma cells", "type": "cell-based", "conditions": "Homo sapiens, single substance treatment, cell viability 48 h post drug addition", "description": "as §1, §2"}, "HuCC-T1 cell line": {"tested_on": "HuCC-T1 cell line", "assay": "Cell TitreGlo cell viability, HuCC-T1 cholangiocarcinoma cells", "type": "cell-based, human", "conditions": "for IC50: Homo sapiens, HuCCT-1", "description": "as §1\nas §2, with “lines.” for “lines. The cell line TFK-1 was insensitive to some tested drugs.”\n(§3) The viability data for each plate were normalized to the average of eight replicates of DMSO at 0.1% and seven replicates of Benzethonium Chloride (BzCl) at 100 uM. BzCl serves as a cell killing control that accounts for background signal from dead cells in the CTG luminescence assay. Raw luminescence data were normalized according to the following equation: […]\n(§4) The normalized data for each dose response curve were then fit using the function drm from the R package drc. This function uses a four parameter log-logistic curve to fit the dose response data, resulting in values for curve minimum, maximum, IC50, and slope. In the case where a log-logistic curve could not be fit to the data, a logistic curve was used instead."}, "CC-SW-1 cell line": {"tested_on": "CC-SW-1 cell line", "assay": "Cell TitreGlo cell viability, CC-SW-1 cholangiocarcinoma cells", "type": "cell-based, human", "conditions": "for IC50: Homo sapiens", "description": "as §1\nas §2, with “lines.” for “lines. The cell line TFK-1 was insensitive to some tested drugs.”\nas §3, §4"}, "[1]": {"tested_on": "normal cholangiocytes, cell line H69 (CVCL_8121)", "conditions": "read-out: H69 cell line Mono, panobinostat alone", "quoted_text": "The effects of various cytotoxic agents on the toxicity of panobinostat in normal cholangiocytes was examined. The cell line H69 (CVCL_8121) was used in experimental procedures described above to determine the IC50 value for panobinostat (the primary drug) on these cells when used in combination with cytotoxic agents (secondary drug) added to the cells at their IC20 concentrations.\nThe larger difference the more toxic the combination."}, "TFK-1 cell line": {"tested_on": "TFK-1 cell line", "assay": "Cell TitreGlo cell viability, TFK-1 cholangiocarcinoma cells", "type": "cell-based, human", "description": "as §1\nas §2, with “lines.” for “lines. The cell line TFK-1 was insensitive to some tested drugs.”\nas §3, §4"}, "EGI-1 cell line": {"tested_on": "EGI-1 cell line", "assay": "Cell TitreGlo cell viability, EGI-1 cholangiocarcinoma cells", "type": "cell-based, human", "description": "as §1\nas §2, with “lines.” for “lines. The cell line TFK-1 was insensitive to some tested drugs.”\nas §3, §4"}}, "note": "Where two headings read alike, the source gives them in different places."}
{"smiles": "Cc1[nH]c2ccccc2c1CCNCc1ccc(/C=C/C(=O)NO)cc1", "note": "[Panobinostat, (E)-N-hydroxy-3-[4-[[2-(2-methyl-1H-indol-3-yl)ethylamino]methyl]phenyl]prop-2-enamide]", "values": [{"measurement": "IC50", "setting": "KMBC cell line", "value": 88, "unit": "nM"}, {"measurement": "IC50", "setting": "KMCH-1 cell line", "value": 99, "unit": "nM"}, {"measurement": "IC50", "setting": "CC-LP-1 cell line", "value": 81, "unit": "nM"}, {"measurement": "IC50", "setting": "HuCC-T1 cell line; panobinostat alone, read-out: HuCCT-1 cell line Mono", "value": 42.4, "unit": "nM"}, {"measurement": "IC50", "setting": "HuCC-T1 cell line; single substance treatment, HuCC-T1, cell viability 48 h post drug addition, read-out: IC50", "value": 90, "unit": "nM"}, {"measurement": "Therapeutic index Mono", "setting": "HuCC-T1 cell line; IC50 in H69 normal cells / IC50 in HuCCT-1, panobinostat alone", "value": 0.9}, {"measurement": "IC50", "setting": "CC-SW-1 cell line; panobinostat alone, read-out: CC-SW-1 cell line Mono", "value": 18.4, "unit": "nM"}, {"measurement": "IC50", "setting": "CC-SW-1 cell line; single substance treatment, CC-SW-1, cell viability 48 h post drug addition, read-out: IC50", "value": 12, "unit": "nM"}, {"measurement": "Therapeutic index Mono", "setting": "CC-SW-1 cell line; IC50 in H69 normal cells / IC50 in CC-SW-1, panobinostat alone", "value": 3.1}, {"measurement": "IC50", "setting": "[1]", "value": 56.8, "unit": "nM"}, {"measurement": "IC50", "setting": "TFK-1 cell line; Homo sapiens, 48 h, single substance treatment, TFK-1, cell viability 48 h post drug addition, read-out: IC50", "value": 70, "unit": "nM"}, {"measurement": "IC50", "setting": "TFK-1 cell line; Homo sapiens, panobinostat alone, read-out: TFK-1 cell line Mono", "value": 51.8, "unit": "nM"}, {"measurement": "Therapeutic index Mono", "setting": "TFK-1 cell line; IC50 in H69 normal cells / IC50 in TFK-1, panobinostat alone", "value": 1.1}, {"measurement": "IC50", "setting": "TFK-1 cell line; single substance treatment, TFK-1, cell viability 48 h post drug addition, read-out: IC50", "value": 95, "unit": "nM"}, {"measurement": "IC50", "setting": "EGI-1 cell line; Homo sapiens, EGI-1, panobinostat alone, read-out: EGI-1 cell line Mono", "value": 62.9, "unit": "nM"}, {"measurement": "Therapeutic index Mono", "setting": "EGI-1 cell line; IC50 in H69 normal cells / IC50 in EGI-1, panobinostat alone", "value": 0.9}, {"measurement": "IC50", "setting": "EGI-1 cell line; single substance treatment, EGI-1, cell viability 48 h post drug addition, listed as panobinostat, read-out: IC50", "value": 99, "unit": "nM"}, {"measurement": "IC50", "setting": "EGI-1 cell line; single substance treatment, EGI-1, cell viability 48 h post drug addition, read-out: IC50", "value": 36, "unit": "nM"}]}
